We go through six molecules from US20150174123A1, “OXABICYCLOHEPTANES AND OXABICYCLOHEPTENES FOR THE TREATMENT OF REPERFUSION INJURY” (priority 2012, published 2015).

pIC50: −log10 of the molar value. “And” between values parts separate entries of the source, which are not always exact repeats. Equal entries are not always repeated. “Also recorded” adds a separate entry of the source. Where two headings read alike, the source gives them in different places.

Data set [1] deals with PP2A (Homo sapiens, UniProt P67775). The note with it: cited from earlier work; for PP2A inhibition: statement in words.
Sequence of PP2A (Homo sapiens, UniProt P67775) (P67775 whole entry): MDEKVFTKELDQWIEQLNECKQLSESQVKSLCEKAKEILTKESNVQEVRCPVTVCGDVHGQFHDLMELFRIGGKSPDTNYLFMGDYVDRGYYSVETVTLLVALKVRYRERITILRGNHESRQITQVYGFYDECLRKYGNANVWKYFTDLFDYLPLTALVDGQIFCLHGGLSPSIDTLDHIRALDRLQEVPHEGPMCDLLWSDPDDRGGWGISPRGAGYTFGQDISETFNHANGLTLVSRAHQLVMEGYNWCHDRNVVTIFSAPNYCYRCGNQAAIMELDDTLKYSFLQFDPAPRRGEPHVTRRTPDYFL
The conditions of data set [2]: given orally to mice; cited from earlier work.
A short description of data set [3]: Example 5: sepsis, vascular leakage and endothelial dysfunction from reperfusion injury. Conditions: subject suffering from sepsis; no data given. It counts as in vivo.
The next data set concerns heart. The data set can be described thus: Example 5: tissue damage from reperfusion injury in the heart after myocardial infarction. The class given is in vivo. The note with it: following myocardial infarction; no data given. The method, then: (§1) LB100, LB102 or LB107 are tested in an animal model of cardiac ischemia-reperfusion injury.
The subject of data set [4] is Akt. Put plainly: Example 3: phosphorylation and activation of Akt in mammalian cells. The class given is cell-based. The note with it: mammalian cells incl. cardiac, brain, endothelial cells; no data given.
In another data set the test system is mammalian tissue. Put plainly: Example 4: reperfusion injury in mammalian tissue that has suffered an ischemia. It counts as in vivo. Conditions: mammalian tissue after ischemia; no data given. The method, then: as §1
The mammalian tissue includes, but is not limited to, cardiac tissue, brain tissue and endothelial tissue.

For data set [5], the system named is Akt. The note with it: Lu et al. 2009; US patent; cited from earlier work.
For the next data set, the system named is PP1. The note with it: Lu et al. 2009(a); cited from earlier work.
Data set [6] has as its system PP2A. Conditions: in vitro in human cancer cells; cited from earlier work.
The subject of the next data set is cancer cells. Conditions: mouse model systems; cited from earlier work.
The subject of data set [7] is PP2A. The note with it: xenografts of human tumor cells in mice, given parenterally; cited from earlier work. (In general: A xenograft is tissue or cells of one species grown in another, often human tumour cells in immunodeficient mice.)
In data set [8] the test system is cardiac tissue (myocardium). The note with it: given before or after onset of oxygen deprivation, cited from earlier work.
Another data set concerns rabbit cells. Conditions: rabbit cells in vitro; cited from earlier work.
The next data set has as its system pig cells. The note with it: pig cells in vitro; cited from earlier work.
A short description of data set [9]: Toxicokinetic studies in rats. The class given is in vivo. Conditions: doses known to inhibit PP2A in tissue of rodents.
Data set [10] can be described thus: Toxicokinetic studies in dogs. It counts as in vivo. Conditions: doses known to inhibit PP2A in tissue of rodents.
Data set [11] concerns distal end of a flap graft. The data set can be described thus: Survival of tissue at the distal end of a skin flap graft (necrosis by planimetry and photographs). It counts as in vivo, in-bred rats. The method, then: An ALZET pump (model 1007D, reservoir volume 100 ul) was implanted subcutaneously under anesthesia subcutaneously four days before creating a skin flap again under anesthesia. The pump in control animals contained sodium chloride and the pump in treated animals contained 0.55 mg of LB-100. The pump delivers 0.5 ul/hour+/−10% so each animal received about 12 ul/day for 8 days, 4 days prior to raising the graft and for the first 4 days after creation of the graft. There were 10 animals in each group.
The animals were sacrificed on day 7 following creation of the flap, the amount of necrosis at the end of the flap was measured by planimetry. The area of necrosis at the end of the flap was divided by total surface area of the entire flap and expressed as a percentage.
The visual appearance of the flaps was also inspected. FIGS. 1a-j show control rats 1-10 on day 7 and FIGS. 2a-j show treatment rats 1-10 on day 7. The treatment rats had received LB-100.

The conditions of data set [12]: young and aged rats; cited from earlier work.
The test system of data set [13] is mouse skeletal muscle endothelial cells. The note with it: cited from earlier work.
The next data set deals with endothelial barrier. Conditions: septic insult; concentration that inhibits PP2A activity; cited from earlier work.
A further data set relates to pig myocardium. Conditions: cited from earlier work.

As to `COC(=O)C1C(C(=O)N2CCN(C)CC2)[C@@H]2CC[C@H]1O2` (stereo in doubt) [LB-107, 3-(4-Methylpiperazine-1-carbonyl)-7-oxa-bicyclo[2,2,1]heptane-2-carboxylic acid methyl ester], the PP2A inhibition entry on PP2A [1] is recorded as “effective inhibitors of PP2A”. Also, in [2], the Oral activity result is “active when given orally”. In data set [3], the “Endothelial dysfunction associated with reperfusion injury” value (“Endothelial dysfunction associated” below) is on record as “reduce endothelial dysfunction” and the “Vascular leakage associated with reperfusion injury” value (from here on “Vascular leakage associated”) was “reduce vascular leakage”. For the same molecule, the “Tissue damage associated with reperfusion injury in the heart” value (“Tissue damage associated” below) in the data set with heart is “reduce tissue damage; also recorded: prevent tissue damage”. In addition, in the data set with Akt [4], the “Activation of Akt” value is “increase activation of Akt”; the “Dephosphorylation and inactivation of Akt by PP2A” value (from here on “Dephosphorylation and inactivation”) is “reduce dephosphorylation and inactivation of Akt”; the “Phosphorylation of Akt” value is “increase phosphorylation of Akt”. The Reperfusion injury result in the data set on mammalian tissue is “reduce reperfusion injury”.
By pIC50 is commonly meant −log10 of the IC50, conventionally taken in molar units. `CC(C)(C)OC(=O)N1CCN(C(=O)C2C(C(=O)O)[C@H]3CC[C@@H]2O3)CC1` (some centres unmarked) [LB-102]: the “Phosphorylation of Akt” value in the data set with Akt [5] was “increased phosphorylation of Akt”; with Akt [4], “increase phosphorylation of Akt”. The pIC50 in the data set on PP1 is roughly 5.10; at PP2A [1] (read-out: IC50 PP2A, Lu et al. 2009(a)), roughly 6.40. The results for the PP2A inhibition entry on PP2A [1], in the data set on PP2A [6] and in the data set on PP2A [7] were “effective inhibitors of PP2A”, “inhibitors of PP2A” and “inhibitors of PP2A”, respectively. Besides, the “Endothelial dysfunction associated” value in data set [3] is “reduce endothelial dysfunction”. Further, the “Vascular leakage associated” value in data set [3] is reported as “reduce vascular leakage”. Moreover, the “Tissue damage associated” value in the data set on heart is “reduce tissue damage; also recorded: prevent tissue damage”. In addition, the “Activation of Akt” value with Akt [4] was “increase activation of Akt”. Moreover, in the data set on Akt [4], the “Dephosphorylation and inactivation” value was “reduce dephosphorylation and inactivation of Akt”. Also, the “Growth of cancer cells” value with cancer cells was “inhibit the growth of cancer cells”. Moreover, in the data set on mammalian tissue, the Reperfusion injury entry is recorded as “reduce reperfusion injury”.
For `C[C@@](O)(/C=C/[C@H]1CC=CC(=O)O1)[C@@H](C[C@@H](O)\C=C/C=C\C=C\CO)OP(=O)(O)O` [fostriecin], the “Size of infarction of cardiac tissue / injury” value in [8] is given as “minimizes the size of infarction”; in [8] (listed as FOS), “reduces injury”. Besides, the Protection from injury entry in the data set on rabbit cells and with pig cells was “afforded protection from injury” each time.
Turning to `COC[C@@H]([C@H](O)[C@H](O)C(=O)NCC[C@H](C)c1nc(/C=C/C[C@@H]2O[C@]3(C[C@@H](O)[C@@H]2C)O[C@H]([C@H](C[C@H](O)[C@H](C)[C@H](O)[C@H](C)/C=C(C)/C(C)=C/C=C/C(C)=C\C#N)OC)[C@H](OP(=O)(O)O)C3(C)C)co1)N(C)C` [calyculin A], the Protection from injury result in the data set with rabbit cells and with pig cells was “afforded protection from injury” in each case.
As to `CN1CCN(C(=O)C2C(C(=O)O)[C@H]3CC[C@@H]2O3)CC1` (some centres unmarked) [LB-100], the “Phosphorylation of Akt” value in the data set with Akt [5] was “increased phosphorylation of Akt”; in the data set on Akt [4] it was “increase phosphorylation of Akt”. Further, the PP2A inhibition result on PP2A [1] is listed as “effective inhibitors of PP2A”; with PP2A [6], “inhibitors of PP2A”; with PP2A [7] it was “inhibitors of PP2A”. In [3], the “Endothelial dysfunction associated” value is “reduce endothelial dysfunction”. Besides, the “Vascular leakage associated” value in data set [3] was “reduce vascular leakage”. Also, the “Tissue damage associated” value in the data set with heart is recorded as “reduce tissue damage; also recorded: prevent tissue damage”. In the data set on Akt [4], the “Activation of Akt” value is on record as “increase activation of Akt”. Further, the “Dephosphorylation and inactivation” value in the data set on Akt [4] was “reduce dephosphorylation and inactivation of Akt”. Further, the Toxicity entry in data set [9] was “acceptable and reversible toxicity”; in [10], “acceptable and reversible toxicity”. Further, the “Average area of necrosis (%)” value in data set [11] (average of 10 treatment rats, day 7, control average 41.0627243) was determined as 31.97%. In addition, the “Visual appearance of flaps (photographs)” value in [11] (day 7, distal ends of the flap, vs control rats) is on record as “less extensive necrosis”. Also, the “Necrosis (area by planimetry)” value in data set [11] (individual treatment rats 1-10, day 7 after flap creation, pump with 0.55 mg LB-100) is 64147 and 66886 and 77327 and 91515 and 112275 and 55473 and 63777 and 66144 and 37181 and 77089. In data set [11] (individual treatment rats 1-10, day 7 after flap creation, pump with 0.55 mg LB-100, about 12 ul/day for 8 days), the “Area of necrosis at the end of the flap divided by total surface area of the flap (%)” value was 31.96% and 28.88% and 30.7% and 39.47% and 40.43% and 30.66% and 33.77% and 25.95% and 24.03% and 33.9%. For the same molecule, in data set [11] (treated vs control rats, planimetry, day 7), the “Mean decrease in extent of necrosis in treated animals” value is given as 22%. The “Growth of cancer cells” value in the data set with cancer cells is recorded as “inhibit the growth of cancer cells”. For the same molecule, the Reperfusion injury result in the data set with mammalian tissue is reported as “reduce reperfusion injury”.
For `C=C1[C@@H](O)[C@@H]2O[C@]3(CC[C@H](/C=C/[C@@H](C)[C@@H]4CC(C)=C[C@@]5(O[C@H](C[C@@](C)(O)C(=O)O)CC[C@H]5O)O4)O3)CC[C@H]2O[C@@H]1[C@@H](O)C[C@H](C)[C@H]1O[C@@]2(CCCCO2)CC[C@H]1C` [okadaic acid], in data set [12], the “Cellular death following induced MI” value is “reduced cellular death”. For the same molecule, in [13], the Endothelial barrier function entry is listed as “preserved endothelial barrier function”. The Endothelial barrier disruption entry with endothelial barrier was “decreases endothelial barrier disruption”. Also, the “Activity of phosphatases, especially PP2A, in heart tissue” value in the data set on pig myocardium (heart tissue infused with the inhibitor) is given as “decreased”. Further, the “Protection of myocardium against ischemia” value in the data set on pig myocardium (pig, in vivo model) is “protected pig myocardium against ischemia”.
